Test results as given in article PMC12490239, “Combining BET inhibition with SMAC mimetics restricts tumor growth and triggers immune surveillance in preclinical cancer models” (Cell Reports Medicine, 2025).

Legend:
Test in all cases: cells
Design in all cases: CellTiter-Glo 2.0 luminescence proliferation/viability assay, single agents, human tumour cell line panel
LS-123 = conditions: Homo sapiens, LS-123, 96 h; single agent; read-out: IC50 SMACm
Method: (§1) The effect of BETi, SMACm alone or in combination cell viability was determined using a 96-h CellTiter-Glo2.0 proliferation assay. Cells were seeded in assay plates and placed at 37°C with 5% CO2 for twenty-four hours before treatment. Compounds were added in triplicate in gradients of increasing concentrations, in case of SMACm ranging between 4.5 nM and 10 μM and in case of BETi between 1.4 nM and 3 μM. DMSO served as control. Cell viability was measured by luminescence analysis using luminescence read on Envision plate readers (PerkinElmer). An additional set of colorectal cancer cell lines was assayed with technical duplicates and experimental triplicates. Cell viability was measured by luminescence analysis using luminescence read on Tecan Plate reader. The effects of drug combinations were analyzed using the Bliss Independence Model.[34] Synergy score was calculated by the average of 3 highest and 3 lowest BLISS Gaps between predicted and measured POC (Percentage of Control) values. To investigate the synergistic interaction between BI 894999 (hereafter, BETi) and BI 891065 (hereafter, SMACm), we evaluated the in vitro anti-tumor effect of the single agents or the combination in a large panel of 151 cancer cell lines of different tissue origin: CRC, gastric cancer, non-small cell lung cancer (NSCLC), and pancreatic carcinoma (Figures 1C–1F). As a mono-agent, SMACm was able to inhibit cell proliferation only in a limited number of tested cell lines (4%, Table S2). Most of the cell lines responded to inhibition by BETi, with sensitivity ranging from 10 to 100 nM (Figure 1C). Bliss Gap analysis, performed to analyze the effect of the BETi+SMACm combination on tumor cell growth (Figures 1D–1F), unveiled potent synergistic activity across the cell models tested (Figure 1E), independent of tumor type (Figure 1F).  Figure 1 The combinatorial effect of BI 894999 and BI 891065 across a panel of human tumor cell lines (A) Selectivity and potency profiles of BI 891065. Top left, structure of BI 891065. Top right, IC50 values for BI 891065 inhibition of cIAP1, cIAP2, and XIAP. Bottom, physicochemical properties of […]. (B) WES (Simple Western System) analysis of cIAP1, cIAP2, and XIAP levels upon treatment of HT-29 cells with indicated concentrations of BI 891065 for 6 h (C) IC50 values determined in cell proliferation assays (n = 151) individually for BETi BI 894999 and SMACm BI 891065. Each point represents a cell line tested. (D) Example of proliferation assay for synergy analysis in LoVo cell line; shown is combination plate map matrix and the cell growth inhibition (CGI) at the indicated concentrations; CGI values < 100%: tumor cell growth, CGI 100%: tumor cell stasis, and CGI > 100%: tumor cell killing. (E) Synergy scores across the tested panel of cell lines obtained using Bliss synergy analysis. (F) Violin plots showing the synergy scores for BETi and SMACm combination across indications. N is the number of cell lines tested in each indication group.

WiDr = conditions: Homo sapiens, WiDr, 96 h; single agent; read-out: IC50 SMACm
Method: as §1

CAPAN-2 = conditions: Homo sapiens, Capan-2, 96 h; single agent; read-out: IC50 SMACm
Method: as §1

KM12C = conditions: Homo sapiens, KM12C, 96 h; single agent; read-out: IC50 SMACm
Method: as §1

LIM2551 = conditions: 96 h; single agent; read-out: IC50 SMACm
Method: as §1

RERF-GC-1B = conditions: 96 h; single agent; read-out: IC50 SMACm
Method: as §1

C75 = conditions: 96 h; single agent; read-out: IC50 SMACm
Method: as §1

KP-3 = conditions: 96 h; single agent; read-out: IC50 SMACm
Method: as §1

NCI-H838 = conditions: Homo sapiens, NCI-H838, 96 h; single agent; read-out: IC50 SMACm
Method: as §1

RCM-1 = conditions: Homo sapiens, RCM-1, 96 h; single agent; read-out: IC50 SMACm
Method: as §1

C125PM = conditions: 96 h; single agent; read-out: IC50 SMACm
Method: as §1

HCA24 = conditions: 96 h; single agent; read-out: IC50 SMACm
Method: as §1

SNU1460 = conditions: 96 h; single agent; read-out: IC50 SMACm
Method: as §1

SW480 = conditions: Homo sapiens, SW480, 96 h; single agent; read-out: IC50 SMACm
Method: as §1

C80 = conditions: 96 h; single agent; read-out: IC50 SMACm
Method: as §1

HLC-1 = conditions: 96 h; single agent; read-out: IC50 SMACm
Method: as §1

In the case of `CN[C@@H](C)C(=O)Nc1ccc(-c2c(-c3cccnc3OC)nc3cc(C)ccn23)c(C#Cc2ccc3c(C)nccc3c2)n1` [SMACm, BI 891065], the IC50 (LS-123) is reported as 4.86 µM, the IC50 (WiDr) is reported as 4.25 µM and the IC50 (CAPAN-2) is reported as 8.59 µM. The IC50 (KM12C) was 5.22 µM, the IC50 (LIM2551) was 2.25 µM and the IC50 (RERF-GC-1B) was 4.29 µM. For the same molecule, the IC50 (C75) was 2.8 µM, the IC50 (KP-3) was 4.62 µM and the IC50 (NCI-H838) was 4.18 µM. The IC50 (RCM-1) was 5.76 µM, the IC50 (C125PM) was 1.26 µM and the IC50 (HCA24) was 1.73 µM. It also gave an IC50 (SNU1460) of 3.15 µM, an IC50 (SW480) of 5.81 µM and an IC50 (C80) of 1.81 µM. It also gave an IC50 (HLC-1) of 5.83 µM.
